This test has as its target S. cerevisiae eIF2B mutant, luciferase reporter luminescence. The test is described as follows: eIF2B reporter inhibitors in yeast strains, dose response, S. cerevisiae, mutant, wild-type, luminescence, growth (AID 792).
Where [1] appears, read: measured here: mutant yeast growth.
[2] abbreviates: S. cerevisiae wild-type, luminescence.

Records with an inconclusive call do not appear. Activity calls are given as the source filed them. How the calls were made is not given here.

One may read the IC50 as the point on the concentration scale where inhibition reaches its midpoint. For `CN1CCN(CCC(=O)Nc2ccc3c(c2)OCO3)CC1`, the IC50 is > 100 µM (inactive). Under setting [1], this compound registered a 50% inhibitory concentration (IC50) greater than 100 µM.

For `O=C(Nc1ccc(Cl)cn1)c1ccccc1F`, the IC50 was > 100 µM (inactive). This compound also returned an IC50 under setting [1] greater than 100 µM.

Take `COCCn1c(-c2ccccc2)cc(C(=O)O)c1C`: the IC50 is > 100 µM (inactive). The compound also returned an IC50 under setting [1] greater than 100 µM.

In the case of `COC(=O)c1nn(-c2ccc3c(c2)CCN3C(C)=O)cc1O`, the IC50 result was “inactive”. The IC50 under setting [2] worked out at 3.61 µM. This compound showed a half-maximal inhibitory concentration (IC50) under setting [1] greater than 100 µM.

For the compound `CCOC(=O)c1c(C)[nH]c(C(=O)Nc2ccc3c(c2)OCO3)c1C`, the IC50 was > 100 µM (inactive). This compound also yielded an IC50 under setting [1] greater than 100 µM.

With `CCOC(=O)N1CCN(c2cc(NCCC(=O)O)c3c4c(onc24)-c2ccccc2C3=O)CC1`, the IC50 was > 100 µM (inactive).

For `CCOC(=O)COc1ccc(S(=O)(=O)NCc2ccco2)cc1`, the IC50 was > 100 µM (inactive). The compound further showed an IC50 under setting [1] greater than 100 µM.

`CCCCNC(=O)OC1CCS(=O)(=O)C1` (stereo not drawn): the IC50 is > 100 µM (inactive). The same compound showed a half-maximal inhibitory concentration (IC50) under setting [1] greater than 100 µM.

For `O=C(CCC1COc2ccccc2O1)Nc1ccc(Cl)cn1` (stereo not drawn), the IC50 is > 100 µM (inactive). The same compound displayed an IC50 under setting [1] greater than 100 µM.

As to `COC(=O)c1ccc(NS(=O)(=O)N(C)C)cc1`, the IC50 was > 100 µM (inactive). Moreover, under setting [1], the IC50 was greater than 100 µM.

With `COC(=O)NC(=C(Cl)Cl)S(=O)(=O)c1ccccc1`, the IC50 was > 100 µM (inactive). Moreover, under setting [1], the concentration for half-maximal inhibition (IC50) was greater than 100 µM.

For `Cc1cc2nnc(SCC(=O)NCc3cccs3)n2c2ccccc12`, the IC50 is > 100 µM (inactive). The compound further returned a half-inhibitory concentration (IC50) under setting [1] greater than 100 µM.

With `COCCN1CN(S(=O)(=O)c2ccc(Cl)cc2)c2nc3ccccc3nc21`, the IC50 is > 100 µM (inactive). The IC50 under setting [1] is greater than 100 µM.

For `Cc1noc(C)c1C(=O)Nc1ccc2c(c1)CCC2`, the IC50 is > 100 µM (inactive). Under setting [1], this compound had a 50% inhibitory concentration (IC50) greater than 100 µM.

`CC(C)C(=O)N1CCN(C2=NS(=O)(=O)c3ccccc32)CC1`: the IC50 was > 100 µM (inactive). The same compound displayed an IC50 under setting [1] greater than 100 µM.

On to `CCCCCOC(=O)Nc1nnc(CCC)s1`, for which the IC50 was > 100 µM (inactive). Under setting [1], this compound returned an IC50 greater than 100 µM.

Take `CCN(C(C)=O)c1nc(CSc2nnc(NC(C)C)s2)cs1`: the IC50 was > 100 µM (inactive). Further, the half-maximal inhibitory concentration (IC50) under setting [1] is greater than 100 µM.

For `CC(C)CNC(=O)c1cc2nc(C3CC3)cc(C(F)(F)F)n2n1`, the IC50 was > 100 µM (inactive). In addition, the IC50 under setting [1] was greater than 100 µM.

For the compound `Fc1ccc2c(c1)nnn2C1CCN(Cc2nnnn2C2CCCCC2)CC1`, the IC50 was > 100 µM (inactive). Moreover, the IC50 under setting [1] was greater than 100 µM.

As for `CN(C)c1nc(N(C)C)nc(N(C#N)CCOc2ccccc2)n1`, the IC50 is > 100 µM (inactive). For the same compound, the IC50 under setting [1] was greater than 100 µM.

Take `COc1ccc(N/C=C(\C#N)c2nc3ccccc3n2C)c(OC)c1`: the IC50 is > 100 µM (inactive). Besides, under setting [1], the IC50 is greater than 100 µM.

For the compound `COc1ccc(-c2cc3nc(C)cc(N)n3n2)cc1`, the IC50 entry is “inactive”. The compound also had a half-maximal inhibitory concentration (IC50) under setting [2] of 3.87 µM. The compound also registered an IC50 under setting [1] greater than 100 µM.

`COc1ccc(OC)c(NC(=O)CNC(=O)Cn2cnc3ccccc3c2=O)c1`: the IC50 was > 100 µM (inactive). Also, under setting [1], the 50% inhibitory concentration (IC50) is greater than 100 µM.

Turning to `Cc1ccc(SCc2cc(=O)[nH]c(N3CCN(Cc4ccc5c(c4)OCO5)CC3)n2)cc1`, the IC50 is > 100 µM (inactive). Moreover, the IC50 under setting [1] is greater than 100 µM.

Take `CC(NC(=O)CSc1nc2ccccc2c(=O)n1CCCO)c1ccccc1` (stereo not drawn): the IC50 is > 100 µM (inactive). This compound also returned an IC50 under setting [1] greater than 100 µM.

As to `CC(C)Cc1nnc(NC(=O)CC(=O)Nc2ccccc2C(=O)O)s1`, the IC50 entry was “inactive”. The half-maximal inhibitory concentration (IC50) under setting [2] worked out at 65.4 µM. Further, the 50% inhibitory concentration (IC50) under setting [1] was greater than 100 µM.

In the case of `COc1cc(S(=O)(=O)N(Cc2cccnc2)Cc2ccco2)ccc1-n1cnnn1`, the IC50 was > 100 µM (inactive). Under setting [2], the IC50 is greater than 100 µM. This compound also came in with an IC50 under setting [1] greater than 100 µM.

As for `CC(C)Oc1ccc(C(=O)O)c(C(=O)O)c1`, the IC50 was > 100 µM (inactive). For the same compound, under setting [1], the IC50 is greater than 100 µM.

`CCC(Sc1nc2sc(C(=O)OC)c(C)c2c(=O)n1N)C(=O)NCC1CCCO1` (stereo not drawn): the IC50 was > 100 µM (inactive). The same compound registered a half-inhibitory concentration (IC50) under setting [1] greater than 100 µM.

As for `Cn1c(=O)n(CC(=O)N2CCC3(CC2)OCCO3)c(=O)c2ccccc21`, the IC50 is > 100 µM (inactive). Moreover, the IC50 under setting [1] is greater than 100 µM.

As for `CSC1=NCCN1C(=O)c1cccc(C(F)(F)F)c1`, the IC50 is > 100 µM (inactive). This compound registered an IC50 under setting [1] greater than 100 µM.

In the case of `Cc1ccc(-c2cn(S(=O)(=O)c3cccc4nsnc34)nc2N)cc1`, the IC50 was > 100 µM (inactive). Under setting [1], the IC50 is greater than 100 µM.

Regarding `CCn1c(C)c(/C=N/Nc2nc3ccccc3s2)c2ccccc21`, the IC50 was > 100 µM (inactive). The compound further displayed a half-maximal inhibitory concentration (IC50) under setting [1] greater than 100 µM.

In the case of `Cc1cccc(Cn2cnc3c(nnn3Cc3ccc(Cl)cc3)c2=O)c1`, the IC50 is > 100 µM (inactive). The IC50 under setting [1] is greater than 100 µM.

Turning to `Cc1cc(=O)[nH]c(N=N/C(=N/Nc2ccc(O)cc2)c2ccccc2)n1`, the IC50 entry is “inactive”. The compound also showed an IC50 under setting [2] of 45.2 µM. Under setting [1], the IC50 is greater than 100 µM.

`CCC(CC)c1nnc(NC(=O)c2cccc(S(=O)(=O)N3CCc4ccccc43)c2)s1`: the IC50 was > 100 µM (inactive). Moreover, the IC50 under setting [1] is greater than 100 µM.

In the case of `O=C(Nc1ccccn1)c1cc2ccccc2o1`, the IC50 result is “inactive”. In addition, the IC50 under setting [2] worked out at 4.46 µM. The compound also gave an IC50 under setting [1] of 56.3 µM.

Regarding `O=C(C1CCN(S(=O)(=O)N2CCOCC2)CC1)N1CCOCC1`, the IC50 was > 100 µM (inactive). Besides, under setting [2], the IC50 was greater than 100 µM. This compound also registered a half-inhibitory concentration (IC50) under setting [1] greater than 100 µM.

For `CCS(=O)(=O)N1CCCC(C(=O)NCCN(C)Cc2ccccc2)C1` (stereo not drawn), the IC50 was > 100 µM (inactive). Also, under setting [1], the half-maximal inhibitory concentration (IC50) was greater than 100 µM.

As for `CNC(=O)CSc1nc(N)c2c3c(sc2n1)CCC3`, the IC50 is > 100 µM (inactive). Besides, the IC50 under setting [1] was greater than 100 µM.

On to `CCc1ccc2oc(-c3cccc(NC(=O)c4cccnc4)c3)nc2c1`, for which the IC50 was > 100 µM (inactive). Under setting [1], the 50% inhibitory concentration (IC50) was greater than 100 µM.

Regarding `Cc1cc(C)c(C#N)c(SCC(=O)Nc2nnc(-c3ccccc3)s2)n1`, the IC50 is > 100 µM (inactive). The 50% inhibitory concentration (IC50) under setting [1] is greater than 100 µM.

As for `CC(C)(C)SCCNC(=O)c1ccc(Cl)c(S(=O)(=O)N2CCOCC2)c1`, the IC50 is > 100 µM (inactive). Under setting [1], this compound displayed an IC50 greater than 100 µM.

On to `CN1C(=O)N(C)C(=O)C2(Cc3c(nc4ccccn4c3=O)N3CCc4ccccc4C32)C1=O` (stereo not drawn), for which the IC50 was > 100 µM (inactive). Also, the IC50 under setting [1] was greater than 100 µM.

Take `Cc1cc(=O)[nH]c(SCc2cc(Cl)ccc2OC(F)F)n1`: the IC50 was > 100 µM (inactive). Further, the IC50 under setting [1] is greater than 100 µM.

As to `COc1ccccc1-n1nc(C(=O)Nc2ccc3c(c2)OCO3)c2ccccc2c1=O`, the IC50 was > 100 µM (inactive). For the same compound, under setting [1], the IC50 was greater than 100 µM.

As for `Cc1ccc(C)c(N=C2CCCN2Cc2ccccc2)c1C#N`, the IC50 is > 100 µM (inactive). The same compound returned an IC50 under setting [1] greater than 100 µM.

In the case of `Cc1cc(C)n(-c2cc(C(C)(C)C)nc3c(-c4ccc(Cl)cc4)cnn23)n1`, the IC50 was > 100 µM (inactive). Moreover, under setting [1], the 50% inhibitory concentration (IC50) was greater than 100 µM.

Take `O=C(Nc1ccccc1N1CCN(C(=O)c2ccccc2)CC1)c1cc2ccccc2o1`: the IC50 is > 100 µM (inactive). The IC50 under setting [1] was greater than 100 µM.

Consider `CCOC(=O)c1nn(-c2cccc(Cl)c2)c2nc(CC(C)C)c(C#N)c(=O)n12`, for which the IC50 is > 100 µM (inactive). This compound registered an IC50 under setting [1] greater than 100 µM.

As for `CN1CCc2nc(SCC(=O)Nc3ccc(Cl)cc3)c(C#N)cc2C1`, the IC50 is > 100 µM (inactive). Further, the IC50 under setting [1] was greater than 100 µM.

Regarding `c1ccc2c(c1)ncn2-c1ncnc2sc3c(c12)CCCC3`, the IC50 was > 100 µM (inactive). The compound further showed an IC50 under setting [1] greater than 100 µM.

For `CCOCC(=O)Nc1cccc(NC(C)=O)c1`, the IC50 is > 100 µM (inactive). Besides, the IC50 under setting [1] was greater than 100 µM.

As for `Cc1ccc(C(=O)NCc2ccco2)cc1S(=O)(=O)Nc1cccc(C)c1C`, the IC50 was > 100 µM (inactive). Besides, under setting [1], the 50% inhibitory concentration (IC50) was greater than 100 µM.

Consider `COc1ccc(N(C(=O)c2ccco2)S(=O)(=O)c2cccs2)cc1`, for which the IC50 is > 100 µM (inactive). Also, under setting [1], the concentration for half-maximal inhibition (IC50) is greater than 100 µM.

On to `CCCC(CCC(=O)NC1CCCCC1)C(=O)O` (stereo not drawn), for which the IC50 is > 100 µM (inactive). The compound also showed an IC50 under setting [1] greater than 100 µM.

As to `CCOC(=O)C1=C(C)NC(C)=C(C(=O)OCC)C1C(=O)OCC(=O)N1CCc2ccccc2C1`, the IC50 is > 100 µM (inactive). Under setting [1], this compound registered a half-inhibitory concentration (IC50) greater than 100 µM.

Take `Cc1nnc(NC(=O)C2(c3ccccc3)CCOCC2)s1`: the IC50 is > 100 µM (inactive). The compound also yielded an IC50 under setting [1] greater than 100 µM.

`O=C(OCCn1cncn1)c1cc2ccccc2oc1=O`: the IC50 is > 100 µM (inactive). Under setting [1], this compound gave a half-inhibitory concentration (IC50) greater than 100 µM.

As to `CC(=O)Nc1ccc(C(=O)NC2CCCC2)cc1`, the IC50 is > 100 µM (inactive). The compound further had an IC50 under setting [1] greater than 100 µM.

On to `Cn1c(=O)cc(SCC(=O)NCCCN2CCOCC2)c2ccccc21`, for which the IC50 is > 100 µM (inactive). Further, the half-inhibitory concentration (IC50) under setting [1] was greater than 100 µM.

Take `O=C(NC1CCCC1)C(c1ccsc1)N(Cc1ccco1)C(=O)Cc1cccs1` (stereo not drawn): the IC50 was > 100 µM (inactive). Further, the IC50 under setting [1] is greater than 100 µM.

Regarding `CCC(C)c1ccc(OCC(=O)O)cc1` (stereo not drawn), the IC50 was > 100 µM (inactive). The compound also had an IC50 under setting [1] greater than 100 µM.

As to `Cc1ccccc1OCc1nc2c3cnn(C)c3ncn2n1`, the IC50 was > 100 µM (inactive). The compound further displayed a concentration for half-maximal inhibition (IC50) under setting [1] greater than 100 µM.

With `COc1cccc(C2NC(CC(C)C)(C(=O)O)C3C(=O)N(Cc4ccccc4)C(=O)C23)c1O` (stereo not drawn), the IC50 was > 100 µM (inactive). The IC50 under setting [1] was greater than 100 µM.

With `CCOc1ccc(-n2cc(C(=O)N3CCC(C)CC3)c3cc(OC)c(OC)cc3c2=O)cc1`, the IC50 was > 100 µM (inactive). Also, under setting [1], the 50% inhibitory concentration (IC50) was greater than 100 µM.
